Literature values in patent publication US9402788B2, “Manufacture of multiple minicapsules” (Sigmoid Pharma Ltd., priority 2007, dated 2016).
Where a name gives a salt, the structure may show the parent alone.

Legend:
[1] = HME film, clotrimazole 10% w/w
[2] = after extrusion with EC/HM polymers; HPLC

Clc1ccccc1C(c1ccccc1)(c1ccccc1)n1ccnc1 [clotrimazole]
duration of prolonged release [1]: 10 h
duration of zero-order release [1]: 6 h

CC(C)Cc1ccc(C(C)C(=O)O)cc1 (centres unmarked) [ibuprofen]
ibuprofen amount remained after extrusion [2]: 98.9%

CC(C)NCC(O)COc1cccc2ccccc12 (centres unmarked) [propranolol HCl]
aqueous solubility: 50 mg/mL

Cn1c(=O)c2[nH]cnc2n(C)c1=O.O [theophylline monohydrate]
aqueous solubility: 8.33 mg/mL
